Among the data in patent US12539292B2, “BRM targeting compounds and associated methods of use” (Arvinas Operations, Inc., priority 2018, dated 2026) are DC50 and Dmax values, retold here.

Like-named read-outs stand apart in the source and are kept apart here.

The test deals with T1, BRM (Homo sapiens, UniProt P51531).
T1 construct: In-Cell Western Screen of BRM Degradation in SW1573 Cells; endogenous in cells; host or cells: SW1573
The test can be described thus: In-cell Western screen of BRM degradation in SW1573 cells (Dmax and DC50). Type of test: cell-based. Put shortly:
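After adhering overnight, cells received compound for 18-20 hours. They were then washed in cold DPBS, fixed with 4% PFA for 20 min and permeabilized for 30 min. Blocking and fluorescent secondary staining followed before imaging.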

The mark [1] stands for this setting: BRM degradation, SW1573 cells, read-out: DC50.
Setting [2] is: degradation of BRM, read-out: BRM DC50.
Where [3] appears, read: BRM degradation, read-out: BRM DC50.
[4] abbreviates: BRM degradation, SW1573 cells, tested at the top concentration of between 0.3 and 10 μM, read-out: Dmax (%) (% degraded).

T1 sequence (P51531 whole entry): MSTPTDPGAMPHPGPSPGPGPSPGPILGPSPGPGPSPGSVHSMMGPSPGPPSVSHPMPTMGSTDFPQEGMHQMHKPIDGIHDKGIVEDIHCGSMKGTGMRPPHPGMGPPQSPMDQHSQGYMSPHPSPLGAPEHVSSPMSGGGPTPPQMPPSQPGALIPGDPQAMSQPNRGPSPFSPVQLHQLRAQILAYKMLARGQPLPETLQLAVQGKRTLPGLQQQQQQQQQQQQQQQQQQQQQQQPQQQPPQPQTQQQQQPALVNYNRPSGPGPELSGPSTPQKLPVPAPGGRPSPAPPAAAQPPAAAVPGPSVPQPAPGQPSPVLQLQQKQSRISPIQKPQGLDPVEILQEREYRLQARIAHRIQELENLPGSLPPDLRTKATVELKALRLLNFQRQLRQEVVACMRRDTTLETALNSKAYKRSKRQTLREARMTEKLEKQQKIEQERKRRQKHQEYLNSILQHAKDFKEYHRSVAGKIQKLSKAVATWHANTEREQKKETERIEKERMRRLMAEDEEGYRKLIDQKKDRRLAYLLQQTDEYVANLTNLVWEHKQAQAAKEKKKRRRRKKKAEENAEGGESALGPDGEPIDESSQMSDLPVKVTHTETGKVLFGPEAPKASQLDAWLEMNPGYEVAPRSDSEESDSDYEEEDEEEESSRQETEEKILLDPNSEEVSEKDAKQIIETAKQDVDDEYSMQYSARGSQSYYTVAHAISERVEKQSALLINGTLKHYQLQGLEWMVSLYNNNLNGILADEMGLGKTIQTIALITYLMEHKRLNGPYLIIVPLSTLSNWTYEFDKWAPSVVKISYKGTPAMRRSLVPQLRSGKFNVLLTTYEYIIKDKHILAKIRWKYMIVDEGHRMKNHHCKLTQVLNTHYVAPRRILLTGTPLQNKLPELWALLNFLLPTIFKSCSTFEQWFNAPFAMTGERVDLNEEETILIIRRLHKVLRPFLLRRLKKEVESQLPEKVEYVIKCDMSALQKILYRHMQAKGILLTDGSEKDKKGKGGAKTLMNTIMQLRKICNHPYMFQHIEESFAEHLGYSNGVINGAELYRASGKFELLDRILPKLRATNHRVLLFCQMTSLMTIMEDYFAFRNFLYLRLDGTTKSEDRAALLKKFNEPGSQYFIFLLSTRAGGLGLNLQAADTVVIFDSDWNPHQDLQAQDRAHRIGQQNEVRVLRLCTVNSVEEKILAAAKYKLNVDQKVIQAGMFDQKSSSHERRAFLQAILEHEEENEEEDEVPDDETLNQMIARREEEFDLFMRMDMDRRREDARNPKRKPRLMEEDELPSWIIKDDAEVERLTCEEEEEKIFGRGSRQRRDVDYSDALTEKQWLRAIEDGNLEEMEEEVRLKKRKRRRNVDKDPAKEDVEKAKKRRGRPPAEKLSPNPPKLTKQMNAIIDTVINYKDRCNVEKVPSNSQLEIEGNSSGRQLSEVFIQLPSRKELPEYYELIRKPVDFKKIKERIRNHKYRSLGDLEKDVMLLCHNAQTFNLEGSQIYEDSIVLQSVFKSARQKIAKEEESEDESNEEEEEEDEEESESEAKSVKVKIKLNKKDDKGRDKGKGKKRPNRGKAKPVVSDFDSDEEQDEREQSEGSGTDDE

Consider `CC[C@@H](NC(=O)[C@@H]1C[C@@H](O)CN1C(=O)[C@@H](c1cc(N2CCC(CN3CCC(O[C@H]4C[C@H](Oc5cc(N6C7CCC6CN(c6cc(-c8ccccc8O)nnc6N)C7)ccn5)C4)CC3)CC2)no1)C(C)C)c1ccc(-c2scnc2C)cc1` [compound 663, (2S,4R)-1-((2R)-2-(3-(4-((4-((1r,3r)-3-((4-(3-(3-amino-6-(2-hydroxyphenyl)pyridazin-4-yl)-3,8-diazabicyclo[3.2.1]octan-8-yl)pyridin-2-yl)oxy)cyclobutoxy)piperidin-1-yl)methyl)piperidin-1-yl)isoxazol-5-yl)-3-methylbutanoyl)-4-hydroxy-N-((R)-1-(4-(4-methylthiazol-5-yl)phenyl)propyl)pyrrolidine-2-carboxamide], for which the DC50 – broadly, the midpoint of the concentration-degradation curve – under setting [1] lay in the range of 2.5 to 10 nM. Further, under “BRM degradation, SW1573 cells, read-out: Dmax (% degraded)”, the Dmax (as a rule, the largest share of the target that was removed) lay in the range of 50 to 75%.

With `Cc1ncsc1-c1ccc([C@H](C)NC(=O)[C@@H]2C[C@@H](O)CN2C(=O)[C@@H](c2cc(OCC[C@H]3CC[C@H](O[C@H]4C[C@H](Oc5cc(N6C7CCC6CN(c6cc(-c8ccccc8O)nnc6N)C7)ccn5)C4)CC3)no2)C(C)C)cc1` [compound 488, (2S,4R)-1-((2R)-2-(3-(2-((1R,4R)-4-((1r,3R)-3-((4-(3-(3-amino-6-(2-hydroxyphenyl)pyridazin-4-yl)-3,8-diazabicyclo[3.2.1]octan-8-yl)pyridin-2-yl)oxy)cyclobutoxy)cyclohexyl)ethoxy)isoxazol-5-yl)-3-methylbutanoyl)-4-hydroxy-N-((S)-1-(4-(4-methylthiazol-5-yl)phenyl)ethyl)pyrrolidine-2-carboxamide], the maximal degradation (Dmax) (SW1573, % degraded, when tested at the top concentration of between 0.3 and 10 μM, read-out: BRM Dmax (%)) is greater than 75%. The DC50 (target protein degradation, read-out: BRM DC50) was less than 2.5 nM.

As for `Cc1nccn1-c1ccc([C@H](C)NC(=O)[C@@H]2C[C@@H](O)CN2C(=O)[C@H](c2cc(N3CCN(CCN4CCC(O[C@H]5C[C@H](Oc6cc(N7C8CCC7CN(c7cc(-c9ccccc9O)nnc7N)C8)ccn6)C5)CC4)CC3)no2)C(C)C)cc1` [compound 412, (2S,4R)-1-((2S)-2-(3-(4-(2-(4-((1r,3r)-3-((4-(3-(3-amino-6-(2-hydroxyphenyl)pyridazin-4-yl)-3,8-diazabicyclo[3.2.1]octan-8-yl)pyridin-2-yl)oxy)cyclobutoxy)piperidin-1-yl)ethyl)piperazin-1-yl)isoxazol-5-yl)-3-methylbutanoyl)-4-hydroxy-N-((S)-1-(4-(2-methyl-1 H-imidazol-1-yl)phenyl)ethyl)pyrrolidine-2-carboxamide], the DC50 under setting [2] was greater than 30 nM.

With `CC(C)[C@H](C(=O)N1C[C@H](O)C[C@H]1C(=O)N[C@@H](C)c1ccc(C#N)cc1)c1cc(N2CCC(CN3CCC(O[C@H]4C[C@H](C#C[C@@H](C)n5cc(-c6cc(-c7ccccc7O)nnc6N)cn5)C4)CC3)CC2)no1` (single isomer, unassigned) [compound 697], the DC50 under setting [1] is greater than 30 nM.

Turning to `Cc1cc([C@H](C(=O)N2C[C@H](O)C[C@H]2C(=O)N[C@@H](COCCCCCc2cc(-c3ccccc3O)nnc2N)c2ccc(-c3scnc3C)cc2)C(C)C)on1` [compound 530, (2S,4R)-N-((R)-2-((5-(3-amino-6-(2-hydroxyphenyl)pyridazin-4-yl)pentyl)oxy)-1-(4-(4-methylthiazol-5-yl)phenyl)ethyl)-4-hydroxy-1-((R)-3-methyl-2-(3-methylisoxazol-5-yl)butanoyl)pyrrolidine-2-carboxamide], the DC50 under setting [3] was greater than 30 nM.

For the compound `Cc1nccn1-c1ccc([C@H](C)NC(=O)[C@@H]2C[C@@H](O)CN2C(=O)[C@@H](c2cc(OC/C=C/c3ccc(O[C@H]4C[C@H](Oc5cc(N6C7CCC6CN(c6cc(-c8ccccc8O)nnc6N)C7)ccn5)C4)cn3)no2)C(C)C)cc1` [compound 277, (2S,4R)-1-((2R)-2-(3-(((E)-3-(5-((1r,3R)-3-((4-(3-(3-amino-6-(2-hydroxyphenyl)pyridazin-4-yl)-3,8-diazabicyclo[3.2.1]octan-8-yl)pyridin-2-yl)oxy)cyclobutoxy)pyridin-2-yl)allyl)oxy)isoxazol-5-yl)-3-methylbutanoyl)-4-hydroxy-N-((S)-1-(4-(2-methyl-1H-imidazol-1-yl)phenyl)ethyl)pyrrolidine-2-carboxamide], the DC50 under setting [1] is less than 2.5 nM. Also, under setting [4], the Dmax is greater than 75%.

Turning to `Cc1ncsc1-c1ccc([C@H](C)NC(=O)[C@@H]2C[C@@H](O)CN2C(=O)[C@@H](c2cc(OCCC3CCN(C[C@H]4C[C@H](Oc5cc(N6C7CCC6CN(c6cc(-c8ccccc8O)nnc6N)C7)ccn5)C4)CC3)no2)C(C)C)c(F)c1F` [compound 588, (2S,4R)-1-((2R)-2-(3-(2-(1-(((1r,3R)-3-((4-(3-(3-amino-6-(2-hydroxyphenyl)pyridazin-4-yl)-3,8-diazabicyclo[3.2.1]octan-8-yl)pyridin-2-yl)oxy)cyclobutyl)methyl)piperidin-4-yl)ethoxy)isoxazol-5-yl)-3-methylbutanoyl)-N-((S)-1-(2,3-difluoro-4-(4-methylthiazol-5-yl)phenyl)ethyl)-4-hydroxypyrrolidine-2-carboxamide], the Dmax (BRM degradation, SW1573 cells, Table 2D, read-out: **Dmax (%) (% degraded)) was greater than 75%. Moreover, where the note is “BRM degradation, SW1573 cells, Table 2D, read-out: *DC50”, the DC50 was less than 2.5 nM.

As to `Cc1ncsc1-c1ccc([C@H](CN(C)C)NC(=O)[C@@H]2C[C@@H](O)CN2C(=O)[C@@H](c2cc(OCCN3CCN(CCOc4cc(N5C6CCC5CN(c5cc(-c7ccccc7O)nnc5N)C6)ccn4)CC3)no2)C(C)C)cc1` [compound 281, (2S,4R)-1-((2R)-2-(3-(2-(4-(2-((4-(3-(3-amino-6-(2-hydroxyphenyl)pyridazin-4-yl)-3,8-diazabicyclo[3.2.1]octan-8-yl)pyridin-2-yl)oxy)ethyl)piperazin-1-yl)ethoxy)isoxazol-5-yl)-3-methylbutanoyl)-N-((R)-2-(dimethylamino)-1-(4-(4-methylthiazol-5-yl)phenyl)ethyl)-4-hydroxypyrrolidine-2-carboxamide], the DC50 under setting [1] was less than 2.5 nM. Besides, the Dmax under setting [4] was greater than 75%.

For `Cc1cc([C@@H](C(=O)N2C[C@H](O)C[C@H]2C(=O)N[C@@H](COCCOCCNc2ccc(-c3ccccc3O)nn2)c2ccc(-c3scnc3C)cc2)C(C)C)on1` [compound 525, (2S,4R)-4-hydroxy-N-((R)-2-(2-(2-((6-(2-hydroxyphenyl)pyridazin-3-yl)amino)ethoxy)ethoxy)-1-(4-(4-methylthiazol-5-yl)phenyl)ethyl)-1-((S)-3-methyl-2-(3-methylisoxazol-5-yl)butanoyl)pyrrolidine-2-carboxamide], the DC50 under setting [3] was greater than 30 nM.

On to `CC(C)[C@H](C(=O)N1C[C@H](O)C[C@H]1C(=O)N[C@@H](C)c1ccc(C2CC2(F)F)cc1)c1cc(OCCN2CCC(O[C@H]3C[C@H](Oc4cc(N5C6CCC5CN(c5cc(-c7ccccc7O)nnc5N)C6)ccn4)C3)CC2)no1` (stereo partly drawn) [compound 438, (2S,4R)-1-((2S)-2-(3-(2-(4-((1r,3S)-3-((4-(3-(3-amino-6-(2-hydroxyphenyl)pyridazin-4-yl)-3,8-diazabicyclo[3.2.1]octan-8-yl)pyridin-2-yl)oxy)cyclobutoxy)piperidin-1-yl)ethoxy)isoxazol-5-yl)-3-methylbutanoyl)-N-((1S)-1-(4-(2,2-difluorocyclopropyl)phenyl)ethyl)-4-hydroxypyrrolidine-2-carboxamide], for which the DC50 under setting [2] is greater than 30 nM.

As to `Cc1ncsc1-c1ccc([C@H](C)NC(=O)[C@@H]2C[C@@H](O)CN2C(=O)[C@@H](c2cc(OCCN3CCC(O[C@H]4C[C@H](Oc5cc(N6C7CCC6CN(c6cc(N)nc8nc(-c9ccccc9O)cn68)C7)ccn5)C4)CC3)no2)C(C)C)cc1` [compound 516], under setting [3], the DC50 is greater than 30 nM.

Consider `CC(C)[C@H](C(=O)N1C[C@H](O)C[C@H]1C(=O)N[C@@H](C)c1ccc(-c2nccn2C)cc1)c1cc(OCCN2CCN(CCOc3cc(N4C5CCC4CN(c4cc(-c6ccccc6O)nnc4N)C5)ccn3)CC2)no1` [compound 159, (2S,4R)-1-((2S)-2-(3-(2-(4-(2-((4-(3-(3-amino-6-(2-hydroxyphenyl)pyridazin-4-yl)-3,8-diazabicyclo[3.2.1]octan-8-yl)pyridin-2-yl)oxy)ethyl)piperazin-1-yl)ethoxy)isoxazol-5-yl)-3-methylbutanoyl)-4-hydroxy-N-((S)-1-(4-(1-methyl-1H-imidazol-2-yl)phenyl)ethyl)pyrrolidine-2-carboxamide], for which the DC50 under setting [1] was greater than 30 nM. Also, the Dmax under setting [4] was less than 50%.

Consider `Cc1ncsc1-c1ccc([C@H](C)NC(=O)[C@@H]2C[C@@H](O)CN2C(=O)[C@@H](c2cc(OCCN3CCN(CCOc4cc(N5C6CCC5CN(c5cc(-c7ccccc7O)nnc5N)C6)ccn4)[C@H](C)C3)no2)C(C)C)cc1` [compound 139, (2S,4R)-1-((2R)-2-(3-(2-((3R)-4-(2-((4-(3-(3-amino-6-(2-hydroxyphenyl)pyridazin-4-yl)-3,8-diazabicyclo[3.2.1]octan-8-yl)pyridin-2-yl)oxy)ethyl)-3-methylpiperazin-1-yl)ethoxy)isoxazol-5-yl)-3-methylbutanoyl)-4-hydroxy-N-((S)-1-(4-(4-methylthiazol-5-yl)phenyl)ethyl)pyrrolidine-2-carboxamide], for which the DC50 under setting [1] is less than 2.5 nM. Besides, the Dmax (BRM degradation, SW1573 cells, when tested at the top concentration of between 0.3 and 10 μM, read-out: Dmax (%) (% degraded)) is greater than 75%.

As to `CC(C)[C@@H](C(=O)N1C[C@H](O)C[C@H]1C(=O)N[C@@H](C)c1ccc(-c2ccnn2C)cc1)c1cc(OCCN2CCN(CCOc3cc(N4C5CCC4CN(c4cc(-c6ccccc6O)nnc4N)C5)ccn3)CC2)no1` [compound 264, (2S,4R)-1-((2R)-2-(3-(2-(4-(2-((4-(3-(3-amino-6-(2-hydroxyphenyl)pyridazin-4-yl)-3,8-diazabicyclo[3.2.1]octan-8-yl)pyridin-2-yl)oxy)ethyl)piperazin-1-yl)ethoxy)isoxazol-5-yl)-3-methylbutanoyl)-4-hydroxy-N-((S)-1-(4-(1-methyl-1H-pyrazol-5-yl)phenyl)ethyl)pyrrolidine-2-carboxamide], under setting [1], the DC50 is less than 2.5 nM. In addition, the Dmax under setting [4] was greater than 75%.
